Data reported in patent publication US12129248B2, “Chromobox protein inhibitors and uses thereof” (Dana-Farber Cancer Institute, Inc., priority 2016, dated 2024).

Assays:
[1] = system: HCT292 human lung cancer cells; test: HCT292 cell viability (crystal violet / ATPlite); format: cell-based; conditions: for IC50 / viability at 10 µM / viability at 50 µM / viability at 20 µM: Homo sapiens; for IC50: Table 4, assay not given, cited among cellular activity Tables 3-9 (HCT292); for % Viability / viability at 10 µM / viability at 50 µM / viability at 20 µM: HCT292 cells, relative to DMSO; for % Viability: 96 hours; for viability at 10 µM / viability at 50 µM / viability at 20 µM: 96 h
Description: Lastly, the biological activity of lead compounds was assessed in cancer cells lines determined to be sensitive to CBX inhibition. First, a cell line screening for CBX2 and CBX3 dependence/sensitivity was conducted using shRNAs. […] These cell lines were utilized to evaluate the potential cellular activity of a panel of CBX inhibitors (Tables 3-9).
Briefly, HCT292 cells were treated 24 hours after passage; the compounds in DMSO were added directly to their media. Initially, which cells caused cell death was checked by fixing and staining the cells with crystal violet 96-hours post treatment and then reading the absorbance using the Envision and comparing the signal to a DMSO control. This was done as a preliminary viability screen prior to the ATPlite assay to determine which compounds HCT292 cells were and H661 cells were not sensitive to. […] Thus, a cellular system to evaluate the activity of small molecule CBX inhibitors was established.

Human His6-CBX7 = Human His6-CBX7 (Homo sapiens (Human), UniProt O95931); test: CBX7 AlphaScreen assay (binding of CBX7 chromodomain to H3K27me3 peptide); conditions: for IC50: average, His6-CBX7 / biotinylated-H3K27me3, read-out: AVG CBX7 Alpha IC50
Description: A biochemical assay was developed based on nanoparticle AlphaScreen assay to monitor the binding of recombinant CBX chromodomain (CBX7) to a methylated peptide (H3K27me3).
The primary assay uses recombinant CBX chromodomain and synthetic, trimethylated H3 histone tail peptide. When CBX/histone tail-binding occurs, AlphaScreen beads are brought in close proximity, resulting in singlet molecular oxygen transfer and production of a luminescent signal. Assay positives inhibiting the binding interaction are therefore expected to prevent complex formation, diminishing signal intensity. The AlphaScreen technology features an anti-Stokes shift in detection: due to energy transfer between beads by singlet oxygen and internal chemical reactions within the acceptor bead, the emission wavelength is blue-shifted relative to the excitation wavelength, which is impossible in traditional fluorescent assays. The relatively long path length of 200 nm that singlet molecular oxygen can travel enables reporting on full protein complexes and not just single target binding. […] Neither the small molecules being tested nor the target protein, CBX7, need to be chemically, conformationally, or behaviorally altered by tethering them to a surface or reporter that may decrease physiological relevance and beget screening artifacts. The primary assay monitors binding of the chromodomain of CBX7 to a histone tail containing a trimethylated lysine at K27, the biologically relevant interaction through which PRC binds to chromatin to repress transcription. This is a robust proximity-based assay that utilizes AlphaScreen technology (PerkinElmer). The assay consists of His6-CBX7 bound to a Ni^++ acceptor bead and the biotinylated histone tail bound to a streptavadin donor bead. Upon CBX7/H3K27me3 binding, the steptavidin bead comes into proximity with the Ni^++ bead to luminesce upon light excitation ([…]; see below).
The protocol for the CBX7 AlphaScreen was as follows: a standard alpha buffer (50 mM HEPES, 150 mM NaCl, 0.1% w/v BSA, 0.01% w/v Tween20) at pH 8.0 and make up two stock solutions at 2× final concentration in the alpha buffer. Solution A contains Human His6-CBX7 is used with biotinylated-H3K27me3 (residues 20-34), at 100 nM and 50 nM respectively. Solution B contains 20 nM streptavidin donor beads and 20 nM nickel acceptor beads. For 384 well assay formats, 10 uL of solution A is added to each well of the assay plate and the plate is spun at 1000 rpm for 30 seconds. 100 nL of experimental compounds from stock plates are delivered by robotic pin transfer using a Janus Workstation (PerkinElmer), allowing the compounds to interact with CBX7 binding prior to assay measurement, followed by another spin and an incubation room temperature. Finally, 10 uL of solution B is added to each well, the plate is spun again and then incubated at room temperature. AlphaScreen measurements are performed on an Envision 2104 (PerkinElmer) utilizing the manufacturer's protocol that has the correct excitation and emission wavelengths, cutoff filters, delay time, etc. A crosstalk calculation is also done through the Envision software to correct for luminescence for adjacent wells while reading the plate. The signal is then normalized to DMSO control wells on the compound plate prior to creation of the IC50 curves.

CBX7 = CBX7 (Homo sapiens (Human), UniProt O95931); test: Isothermal titration calorimetry; format: binding; conditions: in words (FIG. 20)
Description: A new series of compounds were designed and synthesized based on computational modeling of inhibitor compounds with the literature reported crystal structure of CBX.

Human His6-CBX7, sequence (O95931 11-69): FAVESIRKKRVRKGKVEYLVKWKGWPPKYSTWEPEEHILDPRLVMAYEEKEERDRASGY
CBX7, sequence (O95931 whole entry): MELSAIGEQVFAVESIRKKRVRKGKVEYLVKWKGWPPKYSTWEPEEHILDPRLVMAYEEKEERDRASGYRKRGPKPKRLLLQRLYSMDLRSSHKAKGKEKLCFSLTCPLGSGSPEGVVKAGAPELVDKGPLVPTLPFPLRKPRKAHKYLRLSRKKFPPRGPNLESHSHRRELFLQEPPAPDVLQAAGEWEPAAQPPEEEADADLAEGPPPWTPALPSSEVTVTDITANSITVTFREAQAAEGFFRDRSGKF

Row | Compound | IC50 (Human His6-CBX7) [µM] | other results
1 | O=C(CC1S/C(=N/N=C/c2ccc(O)c(O)c2O)NC1=O)Nc1ccc(N2CCCC2)cc1 (centres unmarked) [ACV-17 (1), 2-(4-oxo-2-((2,3,4-trihydroxybenzylidene)hydrazono)thiazolidin-5-yl)-N-(4-(pyrrolidin-1-yl)phenyl) acetamide] | 69.7 | % Viability ([1]; 50 uM, listed as 1-258C): 33.0%; viability at 10 µM ([1]; 10 uM): 72.2%
2 | COC(=O)C1CSC(CC(=O)Nc2ccc(N3CCCC3)cc2)C(=O)N1 (centres unmarked) [ACV-22] |  | binding affinity by isothermal titration calorimetry (CBX7): further confirmed; binding affinity with CBX (Human His6-CBX7; in words (FIG. 9)): low micromolar
3 | CN(C)c1ccc(CCNC(=O)CC2S/C(=N/N=C/c3cccnc3)NC2=O)cc1 (centres unmarked) [ACV-42] | 155 | viability at 50 µM ([1]; 50 uM): 95.8%; IC50 [1]: 1000 µM
4 | CN1CCN(CCNC(=O)Cc2cnc(NC(=O)Nc3cccnc3)s2)CC1 [ACV-81] | 104 | 
5 | COc1ccc(CC(=O)Nc2ncc(CC(=O)NCCN3CCN(C)CC3)s2)c(OC)c1OC [ACV-82] | 50.8 | 
6 | CN1CCN(CCNc2nc(CC(=O)Nc3ccc(N4CCCC4)cc3)cs2)CC1 [ACV-85] | 54.8 | 
7 | COc1ccc(NC(=O)Cc2csc(NCCN3CCN(C)CC3)n2)c(OC)c1 [ACV-88] | 246 | 
8 | O=C(N/N=C/c1ccc(N2CCCC2)cc1)c1ccc(-c2csc(NCCc3cccnc3)n2)cc1 [ACV-92] | 170 | 
9 | COC(=O)Cc1cnc(NC(=O)c2ccc(CCN3CCCC3)cc2)s1 [ACV-93] | 440 | 
10 | c1cn2c(NC3CCCCC3)c(-c3ccc4[nH]ncc4c3)nc2cn1 [ACV-94] | 123 | 
11 | COc1ccc(CC(=O)Nc2nc3cc(C(=O)NCCN4CCN(C)CC4)ccc3s2)cc1OC [ACV-95] | 879 | 
12 | O=C(Cc1ccc(O)c(O)c1)NCc1nc(CC(=O)Nc2ccc(N3CCCC3)cc2)cs1 [ACV-96] | 79.3 | 
13 | O=C(c1ccc(-c2csc(NCCc3cccnc3)n2)cc1)N1CCC(N2CCCC2)CC1 [ACV-97] | 81.7 | 
14 | CN1CCN(CCNC(=O)c2ccc(-c3csc(NCCc4cccnc4)n3)cc2)CC1 [ACV-98] | 121 | 
15 | CN1CCN(CCNC(=O)CC2SC(N3CCC(c4ccc(O)c(O)c4O)=N3)=NC2=O)CC1 (centres unmarked) [CBX-09, N-(2-(4-methylpiperazin-1-yl)ethyl)-2-(4-oxo-2-(3-(2,3,4-trihydroxyphenyl)-4,5-dihydro-1H-pyrazol-1-yl)-4,5-dihydrothiazol-5-yl)acetamide] | 53.4 | 
16 | O=C(CC1S/C(=N\N=C\c2cccnc2)NC1=O)Nc1cccc(Cl)c1Cl (centres unmarked) [JQI-III-263-A] |  | activity in CBX AlphaScreen assay (Human His6-CBX7; cap scan of Scaffold 3, in words (FIG. 8)): improved activity

Second part, led by results:

Row | IC50 (Human His6-CBX7) [µM] | Compound | other results
17 | 10.2 | O=C(CC1S/C(=N/N=C/c2cccnc2)NC1=O)Nc1ccc(N2CCCC2)cc1 (centres unmarked) [ACV-14 (2)] | IC50 [1]: 115 µM
18 | 0.93 | O=C(CC1S/C(=N/N=C/c2ccc(O)c(O)c2O)NC1=O)Nc1ccc(N2CCCC2)cc1 (centres unmarked) [ACV-17 (2)] | % Viability ([1]; 50 uM, listed as 2-165): 58.8%; IC50 [1]: 0.334 µM
19 | 1.74 | O=C(CC1S/C(=N/N=C/c2ccc(O)c(O)c2O)NC1=O)Nc1ccc(N2CCCC2)cc1 (centres unmarked) [ACV-17(CP)] | % Viability ([1]; 50 uM, listed as 258C (CP)): 20.3%
20 | 12.8 | O=C(Cc1cnc(NC(=O)Nc2cccnc2)s1)Nc1ccc(N2CCCC2)cc1 [ACV-40, 2-(2-(3-(pyridin-3-yl)ureido)thiazol-5-yl)-N-(4-(pyrrolidin-1-yl)phenyl)acetamide] | viability at 10 µM ([1]; 10 uM): 99%; viability at 50 µM ([1]; 50 uM): 82.9%; IC50 [1]: 83.9 µM
21 | 5.31 | CN1CCN(CCNC(=O)CC2S/C(=N/N=C/c3ccc(O)c(O)c3O)NC2=O)CC1 (centres unmarked) [ACV-63 (CP)] | % Viability ([1]; 10 uM, listed as 2-195 (CP)): 34.9%; viability at 20 µM [1]: 41%; viability at 50 µM ([1]; 50 uM): 60.6%
22 | 0.183 | CN1CCN(CCNC(=O)CC2S/C(=N/N=C/c3ccc(O)c(O)c3O)NC2=O)CC1 (centres unmarked) [ACV-63, N-(2-(4-methylpiperazin-1-yl)ethyl)-2-(4-oxo-2-((2,3,4-trihydroxybenzylidene)hydrazono)thiazolidin-5-yl)acetamide] | % Viability ([1]; 10 uM, listed as 2-195): 94.2%; % Viability ([1]; 50 uM, listed as 2-195): 43.5%
23 | 0.225 | O=C(CC1SC(N/N=C/c2ccc(O)c(O)c2O)=NC1=O)Nc1ccc(N2CCCCC2)cc1 (centres unmarked) [ACV-78] | 
24 | 3.01 | O=C(NCCN1CCCC1)c1ccc(-c2csc(N/N=C/c3cccnc3)n2)cc1 [ACV-79] | 
25 | 2.86e-05 | O=C(COCc1ccc(CN2CCCC2)cc1)N[C@H]1CCCN(Cc2cccnc2)C1=O [ACV-80] | 
26 | 23.9 | COc1ccc(CC(=O)Nc2nc(CC(=O)Nc3ccc(N4CCCC4)cc3)cs2)c(OC)c1OC [ACV-83] | 
27 | 7.26 | O=C(CC12SC(CCN3CCOCC3)(NC1=O)C1C(=O)N(c3ccc(N4CCCC4)cc3)C(=O)C12)Nc1ccc(N2CCCC2)cc1 (centres unmarked) [ACV-84] | 
28 | 11.8 | O=C(CC1SC(N/N=C/c2ccc(O)c(O)c2O)=NC1=O)Nc1ccc(N2CCCCCC2)cc1 (centres unmarked) [ACV-86] | 
29 | 7.26 | COC(=O)Cc1csc(N/N=C/c2ccc(O)c(O)c2O)n1 [ACV-87] | 
30 | 12.9 | O=C(Nc1ccc(N2CCCC2)cc1)c1ccc(-c2csc(CCN3CCOCC3)n2)cc1 [ACV-89] | viability at 10 µM ([1]; 10 uM): 31.3%; viability at 20 µM [1]: 29%; viability at 50 µM ([1]; 50 uM): 28%
31 | 12 | COC(=O)c1ccc2nc(-c3ccc(O)c(O)c3O)c(NCc3ccccc3)n2c1 [ACV-91] | viability at 10 µM ([1]; 10 uM): 33.5%; viability at 20 µM [1]: 30.5%; viability at 50 µM ([1]; 50 uM): 18%
32 | 16.4 | O=C(Nc1ccc(N2CCCC2)cc1)c1ccc(-c2csc(NCCc3cccnc3)n2)cc1 [ACV-99] | 
33 | 0.835 | O=C(CC1SC(N2CCC(c3ccc(O)c(O)c3O)=N2)=NC1=O)Nc1ccc(N2CCCC2)cc1 (centres unmarked) [CBX-08, 2-(4-oxo-2-(3-(2,3,4-trihydroxyphenyl)-4,5-dihydro-1H-pyrazol-1-yl)-4,5-dihydrothiazol-5-yl)-N-(4-(pyrrolidin-1-yl)phenyl)acetamide] | 
